According to publication PMC4585840 (Scientific Reports, 2015):

Legend:
RCasp6 [1] = target: T1, RCasp6 (Homo sapiens, UniProt P55212); assay: inhibitor kinetic studies (Michaelis-Menten / Lineweaver-Burk) on RCasp6; assay type: biochemical; details: competitive inhibition model, nonlinear regression, Ac-VEID-AFC substrate, 10 nM RCasp6
T1 construct: The zymogen is cleaved at three distinct sites to remove the prodomain and linker regions in order to obtain an active enzyme; His tag (C); made in house; host or cells: E. coli BL21 (DE3)pLysS
T1 sequence (P55212 24-179 limits assumed): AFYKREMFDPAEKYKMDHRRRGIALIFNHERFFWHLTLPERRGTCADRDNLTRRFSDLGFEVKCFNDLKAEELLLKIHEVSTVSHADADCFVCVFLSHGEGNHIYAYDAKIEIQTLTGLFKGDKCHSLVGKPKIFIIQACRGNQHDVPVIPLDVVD
T1 sequence (P55212 194-293 limits assumed): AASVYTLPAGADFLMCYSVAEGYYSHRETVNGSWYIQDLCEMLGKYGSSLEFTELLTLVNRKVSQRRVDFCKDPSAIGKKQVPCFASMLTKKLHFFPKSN

RCasp6 [2] = target: T1, RCasp6; assay: in vitro fluorogenic Casp6 activity assay (Ac-VEID-AFC); assay type: biochemical; details: 10 μM DTT; Fig. 1c
RCasp6 [3] = target: T1, RCasp6; assay: in vitro tubulin cleavage assay with RCasp6; assay type: biochemical; details: 20 nM RCasp6, 10 μM DTT, 10 hours, western blot densitometry; read-out: IC50, cleavage of tubulin by RCasp6 (Tub∆Casp6 relative to total tubulin)
Procedure: Phenothiazines were mixed with 20 nM RCasp6 or RCasp3, 10 μM DTT, and 7.5 nM BSA in SB and 36 μg HCT116 protein extracts added before incubation at 37 °C for 10 hours, western blotting, and densitometry for tubulin-cleaved by Casp6 (Tub∆Casp6) and total tubulin as described in the western blot section. The IC50 was determined by a non-linear regression fit for log inhibitor vs caspase activity with a Hill slope of −1 using GraphPad Prism 5.0.
(§1) The 10630 (1:10,000) and GN60622 (1:10,000) neoepitope antibodies against the p20 subunit of active Casp6[16] and Tub∆Casp6[23], respectively, were generated in our laboratory. The β-actin clone AC-15 (1:5000, Sigma-Aldrich), Casp6 p10 clone B93-4 (1:250, BD Canada, Mississauga, ON, CA), Casp3, and full-length α-tubulin (1:1000, Cell Signaling Technology Inc., Danvers, MA, USA) antibodies were diluted in 5% non-fat dry milk in Tris-buffered saline containing 0.1% Tween-20 (Sigma-Aldrich). […] Secondary anti-mouse conjugated to alkaline phosphatase (Jackson Immunoresearch Laboratories Inc., West Grove, PA) was developed with nitro-blue tetrazolium (ThermoSci) and 5-bromo-4-chloro-3′-indolyphosphate (ThermoSci).

RCasp1 = target: T2, RCasp1 (Homo sapiens, UniProt P29466); assay: in vitro fluorogenic Casp1 activity assay (z-YVAD-AFC); assay type: biochemical; details: Fig. 1g
T2 construct: purchased Biovision
T2 sequence (P29466 120-404): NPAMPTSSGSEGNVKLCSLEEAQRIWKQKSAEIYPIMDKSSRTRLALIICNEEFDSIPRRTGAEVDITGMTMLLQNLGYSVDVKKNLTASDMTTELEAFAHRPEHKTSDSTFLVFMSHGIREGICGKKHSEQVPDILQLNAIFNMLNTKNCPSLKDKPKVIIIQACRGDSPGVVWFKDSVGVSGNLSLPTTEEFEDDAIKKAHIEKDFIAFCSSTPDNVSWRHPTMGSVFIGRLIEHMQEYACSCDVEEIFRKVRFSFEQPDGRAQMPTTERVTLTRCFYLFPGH
Procedure: (§2) Activity assays for RCasp1 (Biovision, Millpitas, CA, USA) and RCasp3 (Enzo Lifesciences) used Z-Tyr-Val-Ala-Asp-7-Amino-4-trifluoromethylcoumarin (z-YVAD-AFC: Enzo LifeSciences,), and Ac-Asp-Glu-Val-Asp-7-Amino-4-trifluoromethylcouramin (Ac-DEVD-AFC: Enzo LifeSciences), respectively. To confirm that these substrates report caspase activity and not proteasomal caspase-like enzyme activity, 1 μM pan-caspase inhibitor, Q-VD-OPh (Sigma-Aldrich) or 0.1 μM proteasome inhibitor, bortezomib (Calbiochem, MA, USA) were tested on 20 nM RCasp3 or 40–60 μg of mouse liver protein extracts.

Casp6 = target: T3, Casp6 (Homo sapiens, UniProt P55212); assay: Casp6 activity in Casp6p20p10-transfected HCT116 cells; assay type: cell-based; parameters: for active Casp6p20 subunit (p20), full length Casp6 lacking its pro-domain; Casp6p20p10 (p20p10); expressed in transfected cells; host or cells: HCT116 human colon carcinoma cells; details: transfected HCT116, 2 hrs; 100 μM and 1 mM methylene blue, 50 μM azure A, 10 μM and 100 μM azure B
T3 sequence (P55212 24-179 limits assumed): T1 sequence (P55212 24-179 limits assumed)
T3 sequence (P55212 194-293 limits assumed): T1 sequence (P55212 194-293 limits assumed)
Procedure: as §2
Human colon carcinoma (HCT116) cells, cultured as recommended (ATCC: Manassas, VA, USA), were transfected with 1 μg pCep4βCasp6p20p10 and 8 μg polyethyleneimine (Polysciences Inc., Warrington, PA, USA), and grown 24 hrs before treatment with PBS and phenothiazines for 2 hours. Human primary neurons were cultured from fetal brain cortical areas obtained under ethical guidelines and approved by the McGill University’s institutional review board as previously described. Human primary neurons plated in poly-L-lysine -coated 6-well plates at a density of 3 × 10^6 cells/mL were serum-deprived for 2 hours in the presence of phenothiazines or an equivalent volume of PBS. Proteins were harvested in cell lysis buffer (CLB; 50mM HEPES, 0.1% CHAPS, 0.1mM EDTA).
as §1

HCT116 cells = assay: cell viability (microscopy and MTT) in HCT116 cells; assay type: cell-based, human; details: 2 hours
Procedure: (§3) HCT116 cells, plated at a density of 1 × 10^5 cells/well and human neurons, plated at a density of 6 × 10^6 cells/well on poly-L-lysine were treated with PBS or phenothiazines for 2 hours. The media was replaced before acquiring images with the Nikon Eclipse Ti microscope and the NIS-Elements (Version 3.10) software. MTT assays: Cells were plated in 96-well plates at 1 × 10^4 or 1 × 10^5 cells per well for 24 hours before treatments with phenothiazines or PBS. After 2 hours, fresh media containing […] MTT (3-(4,5-dimethylthiazol-2-yl)-2,5-diphenyltetrazolium bromide) (Sigma-Aldrich) was added and the cells were incubated for 4 hours at 37 °C in 5% CO2. The media was removed, formazan crystals were dissolved in DMSO, and the absorbance was measured at 560 nm and 670 nm using the BioTek Synergy H4 plate reader.

RCasp3 = target: T4, RCasp3 (Homo sapiens, UniProt P42574); assay: in vitro tubulin cleavage assay with RCasp3; assay type: biochemical; details: 20 nM RCasp3, 10 μM DTT, 10 hours, western blot densitometry; read-out: IC50 on RCasp3-cleaved tubulin
T4 construct: Active Casp6 and Casp3 represented >99% of the purified enzyme; purchased Enzo Lifesciences
T4 sequence (P42574 29-175 limits assumed): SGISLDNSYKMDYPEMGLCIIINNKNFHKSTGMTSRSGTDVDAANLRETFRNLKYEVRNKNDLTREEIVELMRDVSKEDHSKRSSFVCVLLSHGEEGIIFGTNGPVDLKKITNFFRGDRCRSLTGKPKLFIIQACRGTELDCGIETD
T4 sequence (P42574 176-277 limits assumed): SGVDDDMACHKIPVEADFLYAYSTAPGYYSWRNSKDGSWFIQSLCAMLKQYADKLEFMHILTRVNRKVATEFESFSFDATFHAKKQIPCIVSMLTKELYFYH

human primary neurons = assay: cell viability (microscopy) in human primary neurons; assay type: cell-based; details: phase contrast microscopy, 2 hours
Procedure: as §3

Ki (RCasp6 [1]): 50.5 µM
concentration at which reduction in Casp6 activity was observed (RCasp6 [2]): 100 pM
IC50 (RCasp6 [3]): 10.6 µM
inhibition of RCasp1 in the fluorogenic assay (RCasp1): dose dependent inhibition
Casp6 activity on the Ac-VEID-AFC peptide substrate (Casp6): significantly inhibited
IC50 (RCasp3): 14.2 µM
Structure (SMILES): CN(C)c1ccc2nc3ccc(=[N+](C)C)cc-3sc2c1 [methylene blue, [7-(dimethylamino)phenothiazin-3-ylidene]-dimethylazanium;chloride]
concentration that decreased MTT absorbance to almost nothing (toxicity) (HCT116 cells; HCT116, MTT assay): 10000 µM
concentration up to which MTT absorbance was similar to PBS-treated cells (HCT116 cells; HCT116, MTT assay): up to 1 mM
concentration at which cells retained morphology and confluence comparable to PBS-treated controls (HCT116 cells; HCT116, phase contrast microscopy): 100 μM
concentration above which cell body size and axonal fragmentation increased (human primary neurons): above 100 μM
